Experimental data as given in PMC5666424, “Marine-Derived 2-Aminoimidazolone Alkaloids. Leucettamine B-Related Polyandrocarpamines Inhibit Mammalian and Protozoan DYRK & CLK Kinases” (Marine Drugs, 2017).

Experiments:
Assay in all cases: KinomeScan
Type in all cases: binding
Settings in all cases: 1 μM
MAPKAPK5 = target: T1, MAPKAPK5 (Homo sapiens, UniProt Q8IW41)
T1 construct: purchased DiscoverX (KINOMEscan)

NEK9 = target: T2, NEK9 (Homo sapiens, UniProt Q8TD19)
T2 construct: purchased DiscoverX (KINOMEscan)

AMPK-alpha2 = target: T3, AMPK-alpha2 (Homo sapiens, UniProt P54646)
T3 construct: purchased DiscoverX (KINOMEscan)

BLK = target: T4, BLK (Homo sapiens, UniProt P51451)
T4 construct: purchased DiscoverX (KINOMEscan)

NIM1 = target: T5, NIM1 (Homo sapiens, UniProt Q8IY84)
T5 construct: purchased DiscoverX (KINOMEscan)

EGFR(S752-I759del) = target: T6, EGFR(S752-I759del) (Homo sapiens, UniProt P00533, DEL752-759)
T6 construct: purchased DiscoverX (KINOMEscan)

HIPK4 = target: T7, HIPK4 (Homo sapiens, UniProt Q8NE63)
T7 construct: purchased DiscoverX (KINOMEscan)

[1] = target: T8, ABL1(F317I)-phosphorylated (Homo sapiens, UniProt P00519, F317I)
T8 construct: purchased DiscoverX (KINOMEscan)

BRSK2 = target: T9, BRSK2 (Homo sapiens, UniProt Q8IWQ3)
T9 construct: purchased DiscoverX (KINOMEscan)

DCAMKL3 = target: T10, DCAMKL3 (Homo sapiens, UniProt Q9C098)
T10 construct: purchased DiscoverX (KINOMEscan)

FLT3(D835H) = target: T11, FLT3(D835H) (Homo sapiens, UniProt P36888, D835H)
T11 construct: purchased DiscoverX (KINOMEscan)

ERBB3 = target: T12, ERBB3 (Homo sapiens, UniProt P21860)
T12 construct: purchased DiscoverX (KINOMEscan)

ICK = target: T13, ICK (Homo sapiens, UniProt Q9UPZ9)
T13 construct: purchased DiscoverX (KINOMEscan)

TESK1 = target: T14, TESK1 (Homo sapiens, UniProt Q15569)
T14 construct: purchased DiscoverX (KINOMEscan)

TEC = target: T15, TEC (Homo sapiens, UniProt P42680)
T15 construct: purchased DiscoverX (KINOMEscan)

YANK3 = target: T16, YANK3 (Homo sapiens, UniProt Q86UX6)
T16 construct: purchased DiscoverX (KINOMEscan)
T16 sequence (Q86UX6 whole entry): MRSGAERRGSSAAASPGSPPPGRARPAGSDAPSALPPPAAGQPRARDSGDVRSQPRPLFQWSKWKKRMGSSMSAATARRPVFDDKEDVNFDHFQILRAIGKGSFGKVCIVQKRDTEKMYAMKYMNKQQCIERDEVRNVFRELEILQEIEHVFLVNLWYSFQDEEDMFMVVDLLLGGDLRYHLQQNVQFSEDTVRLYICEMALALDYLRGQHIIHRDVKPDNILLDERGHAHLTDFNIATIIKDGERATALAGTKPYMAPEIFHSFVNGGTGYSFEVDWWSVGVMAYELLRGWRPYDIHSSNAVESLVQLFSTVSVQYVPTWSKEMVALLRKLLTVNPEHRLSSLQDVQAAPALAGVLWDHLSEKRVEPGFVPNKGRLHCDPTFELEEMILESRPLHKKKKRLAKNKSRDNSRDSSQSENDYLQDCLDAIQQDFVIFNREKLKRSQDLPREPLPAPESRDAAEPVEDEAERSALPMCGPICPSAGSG

[2] = target: T17, ABL1(F317L)-nonphosphorylated (Homo sapiens, UniProt P00519, F317L)
T17 construct: purchased DiscoverX (KINOMEscan)

FLT4 = target: T18, FLT4 (Homo sapiens, UniProt P35916)
T18 construct: purchased DiscoverX (KINOMEscan)

HIPK1 = target: T19, HIPK1 (Homo sapiens, UniProt Q86Z02)
T19 construct: purchased DiscoverX (KINOMEscan)
T19 sequence (Q86Z02 whole entry): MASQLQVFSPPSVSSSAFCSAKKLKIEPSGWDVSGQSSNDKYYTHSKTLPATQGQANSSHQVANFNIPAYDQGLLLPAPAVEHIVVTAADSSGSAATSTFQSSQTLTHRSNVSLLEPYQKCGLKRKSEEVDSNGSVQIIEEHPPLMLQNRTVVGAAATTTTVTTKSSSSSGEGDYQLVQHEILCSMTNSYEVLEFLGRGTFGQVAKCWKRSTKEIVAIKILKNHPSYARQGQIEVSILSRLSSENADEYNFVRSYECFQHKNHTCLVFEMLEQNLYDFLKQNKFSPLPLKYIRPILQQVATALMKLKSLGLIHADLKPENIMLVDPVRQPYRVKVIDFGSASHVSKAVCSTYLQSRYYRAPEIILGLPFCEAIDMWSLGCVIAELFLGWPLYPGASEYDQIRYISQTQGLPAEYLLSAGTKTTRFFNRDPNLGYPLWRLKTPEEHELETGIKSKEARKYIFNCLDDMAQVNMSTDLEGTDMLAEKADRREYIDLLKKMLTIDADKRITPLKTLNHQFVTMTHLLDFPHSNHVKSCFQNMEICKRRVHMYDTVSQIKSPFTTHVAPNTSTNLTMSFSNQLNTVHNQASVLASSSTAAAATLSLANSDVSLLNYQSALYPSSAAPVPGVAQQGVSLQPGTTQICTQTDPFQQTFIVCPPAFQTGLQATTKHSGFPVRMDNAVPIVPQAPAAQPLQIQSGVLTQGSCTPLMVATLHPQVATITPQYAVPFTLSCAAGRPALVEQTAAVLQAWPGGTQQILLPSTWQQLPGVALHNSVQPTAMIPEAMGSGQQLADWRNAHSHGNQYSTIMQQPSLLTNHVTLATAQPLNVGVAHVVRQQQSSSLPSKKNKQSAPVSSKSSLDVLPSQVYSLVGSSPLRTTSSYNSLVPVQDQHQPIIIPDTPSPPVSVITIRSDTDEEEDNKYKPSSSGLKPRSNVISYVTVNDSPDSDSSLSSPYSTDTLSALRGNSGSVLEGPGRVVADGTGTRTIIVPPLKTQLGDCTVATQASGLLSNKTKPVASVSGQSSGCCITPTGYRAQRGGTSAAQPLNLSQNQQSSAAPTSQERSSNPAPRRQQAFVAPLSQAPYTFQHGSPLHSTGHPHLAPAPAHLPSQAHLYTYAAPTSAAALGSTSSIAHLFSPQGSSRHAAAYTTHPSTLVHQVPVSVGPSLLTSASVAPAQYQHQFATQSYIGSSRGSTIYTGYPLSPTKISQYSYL

TAOK1 = target: T20, TAOK1 (Homo sapiens, UniProt Q7L7X3)
T20 construct: purchased DiscoverX (KINOMEscan)

OSR1 = target: T21, OSR1 (Homo sapiens, UniProt O95747)
T21 construct: purchased DiscoverX (KINOMEscan)

MAP4K2 = target: T22, MAP4K2 (Homo sapiens, UniProt Q12851)
T22 construct: purchased DiscoverX (KINOMEscan)

DDR2 = target: T23, DDR2 (Homo sapiens, UniProt Q16832)
T23 construct: purchased DiscoverX (KINOMEscan)

MEK3 = target: T24, MEK3 (Homo sapiens, UniProt P46734)
T24 construct: purchased DiscoverX (KINOMEscan)
T24 sequence (P46734 whole entry): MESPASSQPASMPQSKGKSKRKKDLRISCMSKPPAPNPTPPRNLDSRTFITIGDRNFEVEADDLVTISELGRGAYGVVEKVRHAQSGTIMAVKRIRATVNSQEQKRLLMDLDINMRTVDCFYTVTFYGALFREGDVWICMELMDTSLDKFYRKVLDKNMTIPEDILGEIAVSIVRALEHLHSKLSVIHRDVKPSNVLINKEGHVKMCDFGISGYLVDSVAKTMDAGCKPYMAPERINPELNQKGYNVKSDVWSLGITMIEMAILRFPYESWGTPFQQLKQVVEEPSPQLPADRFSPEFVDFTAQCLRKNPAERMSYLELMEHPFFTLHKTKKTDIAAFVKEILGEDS

EGFR(L858R) = target: T25, EGFR(L858R) (Homo sapiens, UniProt P00533, L858R)
T25 construct: purchased DiscoverX (KINOMEscan)

CLK3 = target: T26, CLK3 (Homo sapiens, UniProt P49761)
T26 construct: purchased DiscoverX (KINOMEscan)
T26 sequence (P49761 whole entry): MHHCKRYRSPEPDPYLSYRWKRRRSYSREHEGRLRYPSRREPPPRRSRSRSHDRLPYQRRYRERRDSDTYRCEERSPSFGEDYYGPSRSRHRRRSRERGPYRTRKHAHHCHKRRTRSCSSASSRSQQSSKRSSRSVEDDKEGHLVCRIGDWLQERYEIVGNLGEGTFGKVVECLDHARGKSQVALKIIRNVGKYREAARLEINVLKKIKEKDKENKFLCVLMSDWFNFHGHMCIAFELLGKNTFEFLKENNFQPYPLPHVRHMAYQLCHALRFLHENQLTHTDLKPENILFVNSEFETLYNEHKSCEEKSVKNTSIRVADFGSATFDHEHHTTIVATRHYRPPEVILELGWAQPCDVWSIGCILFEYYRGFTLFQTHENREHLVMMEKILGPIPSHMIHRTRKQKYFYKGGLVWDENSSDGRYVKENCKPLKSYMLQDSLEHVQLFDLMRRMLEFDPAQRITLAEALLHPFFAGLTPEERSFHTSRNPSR

FLT1 = target: T27, FLT1 (Homo sapiens, UniProt P17948)
T27 construct: purchased DiscoverX (KINOMEscan)
T27 sequence (P17948 27-1338): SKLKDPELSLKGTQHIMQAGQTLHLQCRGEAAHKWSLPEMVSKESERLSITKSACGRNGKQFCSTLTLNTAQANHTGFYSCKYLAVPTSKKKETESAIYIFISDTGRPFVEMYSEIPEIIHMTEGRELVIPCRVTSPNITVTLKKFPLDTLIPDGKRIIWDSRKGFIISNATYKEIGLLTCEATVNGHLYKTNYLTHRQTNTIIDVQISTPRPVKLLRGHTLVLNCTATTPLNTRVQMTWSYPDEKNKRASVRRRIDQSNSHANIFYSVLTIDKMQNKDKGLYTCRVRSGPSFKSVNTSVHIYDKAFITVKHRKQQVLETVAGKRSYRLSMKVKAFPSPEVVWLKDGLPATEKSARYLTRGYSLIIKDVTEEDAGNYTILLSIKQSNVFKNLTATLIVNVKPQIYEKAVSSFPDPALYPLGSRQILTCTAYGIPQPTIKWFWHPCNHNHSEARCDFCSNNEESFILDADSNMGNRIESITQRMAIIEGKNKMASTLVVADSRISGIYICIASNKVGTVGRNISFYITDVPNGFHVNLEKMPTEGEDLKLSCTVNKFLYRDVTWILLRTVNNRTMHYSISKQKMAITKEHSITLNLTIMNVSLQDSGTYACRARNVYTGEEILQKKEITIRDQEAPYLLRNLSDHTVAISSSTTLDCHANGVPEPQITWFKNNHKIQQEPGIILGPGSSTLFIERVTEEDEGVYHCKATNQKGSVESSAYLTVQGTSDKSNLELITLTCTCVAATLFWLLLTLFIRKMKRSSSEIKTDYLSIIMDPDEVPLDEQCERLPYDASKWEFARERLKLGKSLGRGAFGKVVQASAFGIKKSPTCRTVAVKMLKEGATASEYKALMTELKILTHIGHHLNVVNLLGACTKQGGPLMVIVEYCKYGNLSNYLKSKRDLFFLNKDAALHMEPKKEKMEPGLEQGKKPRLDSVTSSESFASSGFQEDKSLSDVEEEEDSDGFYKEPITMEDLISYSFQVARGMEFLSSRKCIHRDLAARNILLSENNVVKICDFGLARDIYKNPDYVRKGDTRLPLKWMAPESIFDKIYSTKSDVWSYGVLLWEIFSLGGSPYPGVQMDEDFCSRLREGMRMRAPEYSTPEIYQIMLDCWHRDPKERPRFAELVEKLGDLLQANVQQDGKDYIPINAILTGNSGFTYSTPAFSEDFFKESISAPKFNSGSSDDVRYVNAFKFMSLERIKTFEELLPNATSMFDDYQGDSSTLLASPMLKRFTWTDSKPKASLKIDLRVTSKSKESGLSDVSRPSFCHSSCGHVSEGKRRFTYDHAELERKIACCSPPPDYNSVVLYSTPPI

BRSK1 = target: T28, BRSK1 (Homo sapiens, UniProt Q8TDC3)
T28 construct: purchased DiscoverX (KINOMEscan)

IRAK4 = target: T29, IRAK4 (Homo sapiens, UniProt Q9NWZ3)
T29 construct: purchased DiscoverX (KINOMEscan)

IRAK1 = target: T30, IRAK1 (Homo sapiens, UniProt P51617)
T30 construct: purchased DiscoverX (KINOMEscan)
T30 sequence (P51617 whole entry): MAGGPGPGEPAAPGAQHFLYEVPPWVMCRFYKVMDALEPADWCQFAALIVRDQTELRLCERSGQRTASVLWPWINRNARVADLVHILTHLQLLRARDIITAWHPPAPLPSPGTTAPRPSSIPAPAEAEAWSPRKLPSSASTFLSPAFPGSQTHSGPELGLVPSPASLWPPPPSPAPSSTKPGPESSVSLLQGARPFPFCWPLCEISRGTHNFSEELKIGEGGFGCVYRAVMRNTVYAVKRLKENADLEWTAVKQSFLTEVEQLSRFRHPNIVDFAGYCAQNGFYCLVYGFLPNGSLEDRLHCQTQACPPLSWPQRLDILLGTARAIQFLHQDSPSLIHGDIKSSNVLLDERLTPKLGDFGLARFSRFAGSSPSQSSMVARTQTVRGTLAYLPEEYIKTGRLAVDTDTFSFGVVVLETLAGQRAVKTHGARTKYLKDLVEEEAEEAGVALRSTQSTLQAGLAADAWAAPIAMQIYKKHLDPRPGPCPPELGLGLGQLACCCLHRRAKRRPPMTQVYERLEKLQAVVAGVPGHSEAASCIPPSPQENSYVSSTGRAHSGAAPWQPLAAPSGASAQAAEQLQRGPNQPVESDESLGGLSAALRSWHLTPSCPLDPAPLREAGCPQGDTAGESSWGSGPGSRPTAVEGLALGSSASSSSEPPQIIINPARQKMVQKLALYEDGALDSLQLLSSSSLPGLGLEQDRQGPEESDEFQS

ACVR2B = target: T31, ACVR2B (Homo sapiens, UniProt Q13705)
T31 construct: purchased DiscoverX (KINOMEscan)

MET(Y1235D) = target: T32, MET(Y1235D) (Homo sapiens, UniProt P08581, Y1235D)
T32 construct: purchased DiscoverX (KINOMEscan)

BRK = target: T33, BRK (Homo sapiens, UniProt Q13882)
T33 construct: purchased DiscoverX (KINOMEscan)
T33 sequence (Q13882 whole entry): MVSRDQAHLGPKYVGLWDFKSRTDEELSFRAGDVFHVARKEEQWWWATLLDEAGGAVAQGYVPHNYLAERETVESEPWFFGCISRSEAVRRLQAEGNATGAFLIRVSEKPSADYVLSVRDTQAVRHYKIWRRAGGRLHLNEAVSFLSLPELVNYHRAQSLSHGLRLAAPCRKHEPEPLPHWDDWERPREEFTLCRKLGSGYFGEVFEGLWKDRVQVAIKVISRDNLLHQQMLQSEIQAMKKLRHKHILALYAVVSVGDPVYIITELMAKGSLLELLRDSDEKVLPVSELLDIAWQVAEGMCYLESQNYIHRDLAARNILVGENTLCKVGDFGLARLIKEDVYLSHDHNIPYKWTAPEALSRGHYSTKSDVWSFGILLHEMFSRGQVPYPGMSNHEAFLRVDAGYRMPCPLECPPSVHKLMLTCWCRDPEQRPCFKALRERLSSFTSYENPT

MTOR = target: T34, MTOR (Homo sapiens, UniProt P42345)
T34 construct: purchased DiscoverX (KINOMEscan)

[3] = target: T35, TYK2(JH1domain-catalytic) (Homo sapiens, UniProt P29597)
T35 construct: TYK2(JH1domain-catalytic); purchased DiscoverX (KINOMEscan)

EPHA4 = target: T36, EPHA4 (Homo sapiens, UniProt P54764)
T36 construct: purchased DiscoverX (KINOMEscan)

COc1cc(/C=C2\N=C(N)NC2=O)ccc1O [Polyandrocarpamine A]
Score (MAPKAPK5): 100 | Score (NEK9): 100 | Score (AMPK-alpha2): 87 | Score (BLK): 100 | Score (NIM1): 100 | Score (EGFR(S752-I759del)): 100 | Score (HIPK4): 85 | Score [1]: 86 | Score (BRSK2): 100 | Score (DCAMKL3): 94 | Score (FLT3(D835H)): 94 | Score (ERBB3): 100 | Score (ICK): 100 | Score (TESK1): 100 | Score (TEC): 98 | Score (YANK3): 100 | Score [2]: 100 | Score (FLT4): 100 | Score (HIPK1): 52 | Score (TAOK1): 76 | Score (OSR1): 100 | Score (MAP4K2): 97 | Score (DDR2): 69 | Score (MEK3): 98 | Score (EGFR(L858R)): 93 | Score (CLK3): 69 | Score (FLT1): 100 | Score (BRSK1): 100 | Score (IRAK4): 46 | Score (IRAK1): 28 | Score (ACVR2B): 99 | Score (MET(Y1235D)): 100 | Score (BRK): 100 | Score (MTOR): 84 | Score [3]: 100 | Score (EPHA4): 83
